The target in this assay is T1, human calcium receptor (Homo sapiens, UniProt P41180).
T1 construct: expressed in transfected cells; host or cells: HEK293
T1 sequence (P41180 20-1078): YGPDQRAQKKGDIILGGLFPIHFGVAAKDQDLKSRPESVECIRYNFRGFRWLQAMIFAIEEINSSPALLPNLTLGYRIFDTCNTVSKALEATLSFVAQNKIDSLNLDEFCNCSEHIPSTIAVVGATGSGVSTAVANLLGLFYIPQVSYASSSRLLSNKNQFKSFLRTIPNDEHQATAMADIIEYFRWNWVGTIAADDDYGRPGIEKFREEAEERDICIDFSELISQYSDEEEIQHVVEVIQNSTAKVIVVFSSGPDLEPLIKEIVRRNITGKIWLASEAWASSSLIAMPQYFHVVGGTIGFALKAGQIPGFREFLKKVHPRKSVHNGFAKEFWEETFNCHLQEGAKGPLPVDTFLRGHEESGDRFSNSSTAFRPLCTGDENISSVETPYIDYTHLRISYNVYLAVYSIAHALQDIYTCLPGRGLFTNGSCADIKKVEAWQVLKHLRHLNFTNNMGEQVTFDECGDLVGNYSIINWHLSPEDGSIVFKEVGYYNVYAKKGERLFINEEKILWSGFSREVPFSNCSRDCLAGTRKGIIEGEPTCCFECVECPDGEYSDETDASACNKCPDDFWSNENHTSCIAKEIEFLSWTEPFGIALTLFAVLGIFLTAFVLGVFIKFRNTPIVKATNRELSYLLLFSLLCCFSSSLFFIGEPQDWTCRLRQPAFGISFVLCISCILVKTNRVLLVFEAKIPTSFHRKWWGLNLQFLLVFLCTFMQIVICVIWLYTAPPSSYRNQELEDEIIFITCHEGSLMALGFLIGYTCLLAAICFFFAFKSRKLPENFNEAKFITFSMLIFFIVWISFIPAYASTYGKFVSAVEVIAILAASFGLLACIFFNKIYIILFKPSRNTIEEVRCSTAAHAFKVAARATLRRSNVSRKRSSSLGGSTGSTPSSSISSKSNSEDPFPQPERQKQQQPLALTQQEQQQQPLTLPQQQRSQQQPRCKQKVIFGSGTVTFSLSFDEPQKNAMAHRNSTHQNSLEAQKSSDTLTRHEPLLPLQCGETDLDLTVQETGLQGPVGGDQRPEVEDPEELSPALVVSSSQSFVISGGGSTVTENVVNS
In words: Activity on calcium receptors: fluo-3 fluorescence in HEK293 cells transfected with human calcium receptor gene. To be noted: HEK293 cells transfected with plasmid pHuPCaR4.0 (human calcium receptor gene), loaded with fluo-3; 1 mM CaCl2, 1 mM MgCl2. The format is cell-based. The protocol: The activities of the compounds of the present invention on calcium receptors were measured. The measurement was performed in accordance with the method described in Example 4 of Nemeth et al., PCT/US95/13704 (International Publication No. WO96/12697). In brief, HEK293 cells were transfected with a plasmid pHuPCaR4.0 containing a human calcium receptor gene and loaded with fluo-3. The loading was carried out by incubating the cells at 37° C. for 1 hour in Dulbecco's modified Eagle's medium which contained about 5 μM of fluo-3/AM and had been buffered with 20 mM HEPES. Next, the cells were rinsed with Hank's balanced salt solution which contained 1 mM CaCl2 and 1 mM MgCl2 and had been buffered with 20 mM HEPES. Then each test compound was added to the cells and the fluorescence was measured with the use of an excitation wavelength of 485 nm and an emission wavelength of 540 nm.

One may read the EC50 as the concentration giving half of the maximal effect.

Take `CC(NCCCOc1ccc2[nH]ccc2c1)c1cccc2ccccc12` (centres unmarked) [Compound 112]: the EC50 stood at 78 nM.
On to `COc1cccc(C(C)NCCCOc2ccc(Br)cc2)c1` (centres unmarked) [Compound K-2003], for which the EC50 is 290 nM.
Under `COc1cccc(C(C)NCCCCOc2ccc(Br)cc2)c1` (centres unmarked) [Compound K-2004] stands 420 nM.
Turning to `COc1cccc(C(C)NCCCCCOc2ccc(Br)cc2)c1` (centres unmarked) [Compound K-2005], the EC50 is 430 nM.
As to `COc1cccc(C(C)NCCCCCCOc2ccc(Br)cc2)c1` (centres unmarked) [Compound K-2006], the EC50 came to 770 nM.
Under `COc1cccc([C@@H](C)NCCCCCCCOc2ccc(Br)cc2)c1` [Compound K-2007] stands 470 nM.
In the case of `COc1cccc(C(C)NCCSc2cccc(C(F)(F)F)c2)c1` (centres unmarked) [Compound K-2008], the EC50 is 860 nM.
The value for `COc1cccc(C(C)NCCCCSc2cccc(C(F)(F)F)c2)c1` (centres unmarked) [Compound K-2010] was 140 nM; that for `COc1cccc([C@@H](C)NCCCCCSc2cccc(C(F)(F)F)c2)c1` [Compound K-2011] was 210 nM; that for `COc1cccc(C(C)NCCCCCCSc2cccc(C(F)(F)F)c2)c1` (centres unmarked) [Compound K-2012] was 870 nM.
As to `COc1cccc(C(C)NCCSc2ccccc2Br)c1` (centres unmarked) [Compound K-2015], the EC50 was determined as 490 nM.
Regarding `COc1cccc(C(C)NCCCSc2ccccc2Br)c1` (centres unmarked) [Compound K-2016], the EC50 amounted to 360 nM.
For the molecule `COc1cccc(C(C)NCCCCSc2ccccc2Br)c1` (centres unmarked) [Compound K-2017], the EC50 is 360 nM.
In the case of `COc1cccc(C(C)NCCCCCSc2ccccc2Br)c1` (centres unmarked) [Compound K-2018], the EC50 is 330 nM.
Under `CC(NCCOc1cccc(Cl)c1)c1cccc2ccccc12` (centres unmarked) [Compound K-2030] stands 49 nM; under `COc1cccc(C(C)NCCCCSc2ccc([N+](=O)[O-])cc2)c1` (centres unmarked) [Compound K-2033], 350 nM.
For `COc1cccc(C(C)NCCCCCSc2ccc([N+](=O)[O-])cc2)c1` (centres unmarked) [Compound K-2034], the EC50 came out at 61 nM.
`COc1cccc(C(C)NCCCCCCSc2ccc([N+](=O)[O-])cc2)c1` (centres unmarked) [Compound K-2035]: the concentration for a half-maximal effect (EC50) was found to be 220 nM.
On to `COc1cccc(C(C)NCCCCSc2ccc(F)cc2)c1` (centres unmarked) [Compound K-2040], for which the concentration giving a half-maximal response (EC50) came out at 80 nM.
The value for `COc1cccc(C(C)NCCCCCSc2ccc(F)cc2)c1` (centres unmarked) [Compound K-2041] was 100 nM; that for `COc1cccc(C(C)NCCSc2cccc(Br)c2)c1` (centres unmarked) [Compound K-2045] was 870 nM.
`COc1cccc(C(C)NCCCSc2cccc(Br)c2)c1` (centres unmarked) [Compound K-2046]: the EC50 was determined as 140 nM.
For the molecule `COc1cccc(C(C)NCCCCSc2cccc(Br)c2)c1` (centres unmarked) [Compound K-2047], the EC50 worked out at 130 nM.
For the molecule `COc1cccc(C(C)NCCCCCSc2cccc(Br)c2)c1` (centres unmarked) [Compound K-2048], the EC50 was 730 nM.
For the molecule `COc1cccc(C(C)NCCCCCCSc2cccc(Br)c2)c1` (centres unmarked) [Compound K-2049], the EC50 was determined as 830 nM.
Turning to `COc1cccc(C(C)NCCCCCCCSc2cccc(Br)c2)c1` (centres unmarked) [Compound K-2050], the EC50 is 550 nM.
Under `COc1cccc(C(C)NCCCCCCCCSc2cccc(Br)c2)c1` (centres unmarked) [Compound K-2051] stands 340 nM; under `COc1cccc(C(C)NCCCSc2ccc(C(F)(F)F)cc2)c1` (centres unmarked) [Compound K-2055], 57 nM; under `COc1cccc(C(C)NCCCCSc2ccc(C(F)(F)F)cc2)c1` (centres unmarked) [Compound K-2056], 39 nM.
`COc1cccc([C@@H](C)NCCCCCSc2ccc(C(F)(F)F)cc2)c1` [Compound K-2057]: the concentration giving a half-maximal response (EC50) worked out at 410 nM.
Under `COc1cccc(C(C)NCCCCCCSc2ccc(C(F)(F)F)cc2)c1` (centres unmarked) [Compound K-2058] stands 390 nM; under `COc1cccc(C(C)NCCCCCCCSc2ccc(C(F)(F)F)cc2)c1` (centres unmarked) [Compound K-2059], 270 nM; under `COc1cccc(C(C)NCCCSc2cccc(Cl)c2)c1` (centres unmarked) [Compound K-2061], 150 nM.
For the molecule `COc1cccc([C@@H](C)NCCSc2cc(Cl)ccc2Cl)c1` [Compound K-2066], the EC50 was 260 nM.
On to `CC(NCCCCCSc1ccccc1Br)c1cccc2ccccc12` (centres unmarked) [Compound K-2075], for which the EC50 was found to be 140 nM.
As to `C[C@@H](NCCCCCSc1ccc(C(F)(F)F)cc1)c1cccc2ccccc12` [Compound K-2076, N-[(1R)-1-(1-naphthyl)ethyl]-N-(5-{[4-(trifluoromethyl)phenyl]thio}pentyl)amine], the EC50 came to 6200 nM.
Under `COc1cccc(C(C)NCCCSc2ccc(Cl)c(Cl)c2)c1` (centres unmarked) [Compound K-2078] stands 170 nM; under `COc1cccc(C(C)NCCCCSc2ccc(Cl)c(Cl)c2)c1` (centres unmarked) [Compound K-2079], 200 nM.
For the molecule `COc1cccc(C(C)NCCCCCSc2ccc(Cl)c(Cl)c2)c1` (centres unmarked) [Compound K-2080], the EC50 was 770 nM.
`COc1cccc(C(C)NCCCCCCCSc2ccc(Cl)c(Cl)c2)c1` (centres unmarked) [Compound K-2082]: the EC50 was determined as 2810 nM.
The value for `COc1cccc(C(C)NCCCSc2c(Cl)cccc2Cl)c1` (centres unmarked) [Compound K-2084] was 120 nM; that for `COc1cccc(C(C)NCCCCSc2c(Cl)cccc2Cl)c1` (centres unmarked) [Compound K-2085] was 130 nM.
As for `C[C@@H](NCCSc1cc(Cl)ccc1Cl)c1cccc2ccccc12` [Compound K-2117, (R)-N-[1-(1′-naphthyl)ethyl]-2-(2′,5′-dichlorophenylthio)ethylamine], the EC50 was 43 nM.
`CC(NCCC(=O)N(Cc1ccccc1)Cc1ccccc1)c1cccc2ccccc12` (centres unmarked) [Compound K-2177]: the concentration giving a half-maximal response (EC50) stood at 75 nM.
The value for `C[C@@H](NCCC(=O)N(Cc1ccc(Cl)cc1)Cc1ccc(Cl)cc1)c1cccc2ccccc12` [Compound K-2243, N1,N1-di(4-chlorobenzyl)-3-{[(1R)-1-(1-naphthyl)ethyl]amino}propanamide] was 92 nM; that for `C[C@@H](NCCCCSc1ccc(C(F)(F)F)cc1)c1cccc2ccccc12` [Compound K-2246, N-[(1R)-1-(1-naphthyl)ethyl]-N-(4-{[4-(trifluoromethyl)phenyl]thio}butyl)amine] was 120 nM; that for `C[C@@H](NCCC(=O)N(Cc1ccccc1)Cc1ccc2ccccc2c1)c1cccc2ccccc12` [Compound K-2248] was 78 nM.
On to `CC(NCCC(=O)N(Cc1ccccc1)Cc1ccccc1Cl)c1cccc2ccccc12` (centres unmarked) [Compound K-2249], for which the EC50 was 82 nM.
In the case of `CC(NCCC(=O)N(Cc1ccccc1)Cc1ccc(Cl)cc1Cl)c1cccc2ccccc12` (centres unmarked) [Compound K-2251], the EC50 was 51 nM.
As for `C[C@@H](NCCC(=O)N(Cc1ccccc1)Cc1cccc(Cl)c1)c1cccc2ccccc12` [Compound K-2252], the EC50 is 18 nM.
With `CC(NCCC(=O)N(Cc1cccc(Cl)c1)Cc1cccc(Cl)c1)c1cccc2ccccc12` (centres unmarked) [Compound K-2253], the EC50 stood at 190 nM.
For `CC(NCCC(=O)N(Cc1ccccc1Cl)Cc1ccccc1Cl)c1cccc2ccccc12` (centres unmarked) [Compound K-2254], the half-maximal effective concentration (EC50) is 88 nM.
The value for `CC(NCCC(=O)N(Cc1ccc(F)cc1)Cc1ccc(F)cc1)c1cccc2ccccc12` (centres unmarked) [Compound K-2256] was 180 nM.
Take `C[C@@H](NCCC(=O)N(Cc1ccc(OC(F)(F)F)cc1)Cc1ccc(OC(F)(F)F)cc1)c1cccc2ccccc12` [Compound K-2257, N1,N1-di[4-(trifluoromethoxy)benzyl]-3-{[(1R)-1-(1-naphthyl)ethyl]amino}propanamide]: the EC50 came out at 39 nM.
Take `C[C@@H](NCCC(=O)N(Cc1ccc(C(F)(F)F)cc1)Cc1ccc(C(F)(F)F)cc1)c1cccc2ccccc12` [Compound K-2259, N1,N1-di[4-(trifluoromethyl)benzyl]-3-{[(1R)-1-(1-naphthyl)ethyl]amino}propanamide]: the EC50 stood at 2.4 nM.
Turning to `CC(NCCC(=O)N(Cc1ccc(Cl)cc1)Cc1cccc(Cl)c1)c1cccc2ccccc12` (centres unmarked) [Compound K-2261], the EC50 came out at 26 nM.

The values above are taken from US7816408B2, “Calcium receptor active compounds” (NPS Pharmaceuticals, Inc., priority 2002, dated 2010).
